Patent US11090304B2 (Amgen Inc., priority 2018, dated 2021)

molecular target: GDP-bound KRAS protein (aa 1-169), containing both G12C and C118A amino acid substitutions (Homo sapiens, UniProt P01116, C118A/G12C); test: Coupled nucleotide exchange assay (SOS-mediated, AlphaScreen); type: biochemical; settings: 5 min compound pre-incubation
Sequence (P01116 1-169 isoform P01116-2 G12C/C118A): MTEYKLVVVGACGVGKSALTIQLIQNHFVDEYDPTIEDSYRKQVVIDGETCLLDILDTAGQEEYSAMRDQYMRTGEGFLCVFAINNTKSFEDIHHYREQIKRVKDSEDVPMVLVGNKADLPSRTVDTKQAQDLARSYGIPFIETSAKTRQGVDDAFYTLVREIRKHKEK

Compound	Coupled exchange IC50 (5 min)
C=CC(=O)N1CCN(c2nc(=O)n(-c3c(C)ccnc3C(C)C)c3nc(-c4ccccc4F)c(Cl)cc23)[C@H](C(F)F)C1 (single isomer, unassigned) [Example 78-3-1]	1.19 | nda μM
C=CC(=O)N1CCN(c2nc(=O)n(-c3c(C)ccnc3C(C)C)c3nc(-c4ccccc4F)c(Cl)cc23)C2(CC2)C1 (single isomer, unassigned) [Example 78-4, (M)-6-chloro-7-(2-fluorophenyl)-1-(4-methyl-2-(2-propanyl)-3-pyridinyl)-4-(7-(2-propenoyl)-4,7-diazaspiro[2.5]octan-4-yl)pyrido[2,3-d]pyrimidin-2(1H)-one]	30.3 | nda μM
C=CC(=O)N1CCN(c2nc(=O)n(-c3c(C)ccnc3C(C)C)c3nc(-c4ccccc4F)c(Cl)cc23)[C@H](C(F)(F)F)C1 (single isomer, unassigned) [Example 78-9-1]	1.26 | nda μM
C=CC(=O)N1CCN(c2nc(=O)n(-c3c(C)ccnc3C(C)C)c3nc(-c4ccccc4F)c(Cl)cc23)[C@@H](C(F)(F)F)C1 (single isomer, unassigned) [Example 78-9-2]	0.423 | nda μM
C=CC(=O)NCCNc1nc(=O)n(-c2c(C)ccnc2C(C)C)c2nc(-c3ccccc3F)c(Cl)cc12 (single isomer, unassigned) [Example 78-12, (M)-N-(2-((6-chloro-7-(2-fluorophenyl)-1-(4-methyl-2-(2-propanyl)-3-pyridinyl)-2-oxo-1,2-dihydropyrido[2,3-d]pyrimidin-4-yl)amino)ethyl)-2-propenamide]	15.4 | nda μM
C=CC(=O)N1C[C@H]2CC[C@@H](C1)N2c1nc(=O)n(-c2c(C)ccnc2C(C)C)c2nc(-c3ccccc3F)c(Cl)cc12 (single isomer, unassigned) [Example 78-13, (M)-6-chloro-7-(2-fluorophenyl)-1-(4-methyl-2-(2-propanyl)-3-pyridinyl)-4-(3-(2-propenoyl)-3,8-diazabicyclo[3.2.1]octan-8-yl)pyrido[2,3-d]pyrimidin-2(1H)-one]	2.22 | nda μM
C=CC(=O)N1C[C@@H](C)N(c2nc(=O)n(-c3c(C)ccnc3C(C)C)c3nc(-c4ccccc4F)c(Cl)cc23)[C@H](C)C1 (single isomer, unassigned) [Example 78-16]	16.6 | nda μM
C=CC(=O)N1C[C@H]2C[C@@H](C1)N2c1nc(=O)n(-c2c(C)ccnc2C(C)C)c2nc(-c3ccccc3F)c(Cl)cc12 (single isomer, unassigned) [Example 78-17, (M)-6-chloro-7-(2-fluorophenyl)-1-(4-methyl-2-(2-propanyl)-3-pyridinyl)-4-(3-(2-propenoyl)-3,6-diazabicyclo[3.1.1]heptan-6-yl)pyrido[2,3-d]pyrimidin-2(1H)-one]	26 | nda μM
C=CC(=O)N1CCN(c2nc(=O)n(-c3c(C)cc(CO)cc3C(C)C)c3nc(-c4ccccc4F)c(Cl)cc23)[C@@H](C)C1 (single isomer, unassigned) [Example 80-2-1]	0.824 | nda μM
C=CC(=O)N1CCN(c2nc(=O)n(-c3ccccc3C(C)C)c3nc(-c4c(F)cccc4C#N)c(Cl)cc23)[C@@H](C)C1 (single isomer, unassigned) [Example 98-2]	3.38 | nda μM
C=CC(=O)N1CCN(c2nc(=O)n(-c3c(C)cccc3C(C)C)c3nc(-c4ccccc4F)c(C)cc23)[C@@H](C)C1 (single isomer, unassigned) [Example 102-1]	3.45 | nda μM
C=CC(=O)N1CCN(c2nc(=O)n(-c3ccccc3C(C)C)c3cc(-c4ccccc4F)c(Cl)nc23)[C@@H](C)C1 (single isomer, unassigned) [Example 110-1]	3.22 | nda μM
C=CC(=O)N1CCN(c2nc(=O)n(-c3c(C)ccnc3C(C)C)c3nc(-c4ccccc4F)c(Cl)nc23)[C@@H](C)C1 (single isomer, unassigned) [Example 111-2]	0.86 | nda μM
C=CC(=O)N1CCN(c2nc(=O)n(-c3c(C)cccc3C(C)C)c3nc(-c4cc(Cl)ccc4O)c(F)cc23)[C@@H](C)C1 (single isomer, unassigned) [Example 113]	1.02 | nda μM
C=CC(=O)N1CCN(c2nc(=O)n(-c3c(C)cccc3C(C)C)c3nc(-c4cc(Cl)ccc4O)c(F)cc23)[C@@H](C)C1 (single isomer, unassigned) [Example 114]	6.435 | nda μM
C=CC(=O)N1CCN(c2nc(=O)n(-c3c(C(C)C)ncnc3N(C)C)c3nc(-c4ccccc4F)c(Cl)cc23)[C@@H](C)C1 (single isomer, unassigned) [Example 140-2]	0.677 | nda μM

Compound	Coupled exchange IC50 (5 min)
C=CC(=O)N1CCN(c2nc(=O)n(-c3c(C(N)=O)cccc3C(C)C)c3nc(-c4ccccc4F)c(Cl)cc23)[C@@H](C)C1 (single isomer, unassigned) [Example 142-1]	23.9 | nda μM
C=CC(=O)N1CCN(c2nc(=O)n(-c3c(N)cccc3C(C)C)c3nc(-c4ccccc4F)c(Cl)cc23)[C@@H](C)C1 (single isomer, unassigned) [Example 155-2]	13.5 | nda μM
C=CC(=O)N1CCN(c2nc(=O)n(-c3c(C)cccc3C(C)C)c3nc(-c4nc(N)cc5ccccc45)c(F)cc23)[C@@H](C)C1 [71-2, 7-(3-amino-1-isoquinolinyl)-6-fluoro-1-(2-methyl-6-(2-propanyl)phenyl)-4-((2S)-2-methyl-4-(2-propenoyl)-1-piperazinyl)pyrido[2,3-d]pyrimidin-2(1H)-one]	2.17 | nda μM
C=CC(=O)N1CC(N(C)c2nc(=O)n(-c3c(C)ccnc3C(C)C)c3nc(-c4ccccc4F)c(Cl)cc23)C1 [76-2]	20.1 | nda μM
C=CC(=O)N1CCN(c2nc(=O)c(-c3ccccc3C)c3cc(-c4ccccc4F)c(C)nn23)[C@@H](C)C1 [77-2, 3-(2-fluorophenyl)-2-methyl-5-(2-methylphenyl)-8-((2S)-2-methyl-4-(2-propenoyl)-1-piperazinyl)-6H-pyrimido[1,6-b]pyridazin-6-one]	77.7 | nda μM
C=CC(=O)N1CCN(c2nc(CN(C)C)c(-c3ccccc3C(C)C)c3nc(-c4ccccc4F)c(Cl)cc23)CC1 [86-2, 1-(4-(3-chloro-7-((dimethylamino)methyl)-2-(2-fluorophenyl)-8-(2-(2-propanyl)phenyl)-1,6-naphthyridin-5-yl)-1-piperazinyl)-2-propen-1-one]	6.6 | nda μM
C=CC(=O)N1CCN(c2nc(=O)n(CC(F)(F)F)c3nc(-c4c(O)cccc4F)c(Cl)cc23)[C@@H](C)C1 [Example 54-7, 6-chloro-7-(2-fluoro-6-hydroxyphenyl)-4-((2S)-2-methyl-4-(2-propenoyl)-1-piperazinyl)-1-(2,2,2-trifluoroethyl) pyrido [2,3-d]pyrimidin-2(1H)-one]	1.75 | nda μM
C=CC(=O)N1CCN(c2nc(=O)n(-c3nc(C)ccc3C(C)C)c3nc(-c4c(O)cccc4F)c(Cl)cc23)[C@@H](C)C1 [Example 54-14, 6-chloro-7-(2-fluoro-6-hydroxyphenyl)-1-(6-methyl-3-(2-propanyl)-2-pyridinyl)-4-((2S)-2-methyl-4-(2-propenoyl)-1-piperazinyl) pyrido[2,3-d]pyrimidin-2(1H)-one]	12.4 | nda μM
C=CC(=O)N1CCN(c2nc(=O)n(-c3ccccc3CC#N)c3nc(-c4c(O)cccc4F)c(Cl)cc23)[C@@H](C)C1 [Example 54-19, (2-(6-chloro-7-(2-fluoro-6-hydroxyphenyl)-4-((2S)-2-methyl-4-(2-propenoyl)-1-piperazinyl)-2-oxopyrido[2,3-d]pyrimidin-1(2H)-yl)phenyl) acetonitrile]	12.2 | nda μM
C=CC(=O)N1CCN(c2nc(=O)n(-c3nccnc3C(C)C)c3nc(-c4ccccc4F)c(Cl)cc23)[C@@H](C)C1 [Example 54-20]	2.26 | nda μM
C=CC(=O)N1CCN(c2nc(=O)n(-c3ncccc3C3(C#N)CC3)c3nc(-c4ccccc4F)c(Cl)cc23)[C@@H](C)C1 [Example 54-39, 1-(2-(6-chloro-7-(2-fluorophenyl)-4-((2S)-2-methyl-4-(2-propenoyl)-1-piperazinyl)-2-oxopyrido[2,3-d]pyrimidin-1(2H)-yl)-3-pyridinyl) cyclopropane carbonitrile]	32.1 | nda μM
C=CC(=O)N1CCN(c2nc(=O)n(-c3ncccc3C3(C#N)CC3)c3nc(-c4c(O)cccc4F)c(Cl)cc23)[C@@H](C)C1 [Example 54-40, 1-(2-(6-chloro-7-(2-fluoro-6-hydroxyphenyl)-4-((2S)-2-methyl-4-(2-propenoyl)-1-piperazinyl)-2-oxopyrido[2,3-d]pyrimidin-1(2H)-yl)-3-pyridinyl) cyclopropane carbonitrile]	21.3 | nda μM
C=CC(=O)N1CCN(c2nc(=O)n(-c3ccccc3C(C)C)c3nc(-c4c(C)noc4C)c(Cl)cc23)[C@@H](C)C1 [Example 54-44, 6-chloro-7-(3,5-dimethyl-1,2-oxazol-4-yl)-4-((2S)-2-methyl-4-(2-propenoyl)-1-piperazinyl)-1-(2-(2-propanyl)phenyl)pyrido [2,3-d]pyrimidin-2(1H)-one]	3.9 | nda μM
C=CC(=O)N1CCN(c2nc(=O)n(-c3ccccc3C(C)C)c3nc(-c4ccc[nH]4)c(Cl)cc23)[C@@H](C)C1 [Example 54-46, 6-chloro-4-((2S)-2-methyl-4-(2-propenoyl)-1-piperazinyl)-1-(2-(2-propanyl)phenyl)-7-(1H-pyrrol-2-yl)pyrido[2,3-d]pyrimidin-2(1H)-one]	7.24 | nda μM
C=CC(=O)N1CCN(c2nc(=O)n(-c3ccccc3C(C)C)c3nc(-c4ccco4)c(Cl)cc23)[C@@H](C)C1 [Example 54-47, 6-chloro-7-(2-furanyl)-4-((2S)-2-methyl-4-(2-propenoyl)-1-piperazinyl)-1-(2-(2-propanyl)phenyl)pyrido [2,3-d]pyrimidin-2(1H)-one]	10.7 | nda μM
